In US6403805B1 (Janssen Pharmaceutica N.V., priority 1995, dated 2002):
Counter-ions that a name gives are not always drawn.

Columns and labels:
[1] = biological target: T1, recombinant human MNL phosphodiesterase type IV B (Homo sapiens, UniProt Q07343); assay: Inhibition of recombinant human mononuclear lymphocyte (MNL) phosphodiesterase type IV B produced in insect cells with a baculovirus vector; assay type: biochemical; conditions: recombinant human MNL PDE IV B; 0.8 μM 3H-cAMP, pH 8, 37° C.; calculated graphically
T1 construct: made in house; host or cells: insect cells infected with recombinant baculovirus
T1 sequence (Q07343 whole entry): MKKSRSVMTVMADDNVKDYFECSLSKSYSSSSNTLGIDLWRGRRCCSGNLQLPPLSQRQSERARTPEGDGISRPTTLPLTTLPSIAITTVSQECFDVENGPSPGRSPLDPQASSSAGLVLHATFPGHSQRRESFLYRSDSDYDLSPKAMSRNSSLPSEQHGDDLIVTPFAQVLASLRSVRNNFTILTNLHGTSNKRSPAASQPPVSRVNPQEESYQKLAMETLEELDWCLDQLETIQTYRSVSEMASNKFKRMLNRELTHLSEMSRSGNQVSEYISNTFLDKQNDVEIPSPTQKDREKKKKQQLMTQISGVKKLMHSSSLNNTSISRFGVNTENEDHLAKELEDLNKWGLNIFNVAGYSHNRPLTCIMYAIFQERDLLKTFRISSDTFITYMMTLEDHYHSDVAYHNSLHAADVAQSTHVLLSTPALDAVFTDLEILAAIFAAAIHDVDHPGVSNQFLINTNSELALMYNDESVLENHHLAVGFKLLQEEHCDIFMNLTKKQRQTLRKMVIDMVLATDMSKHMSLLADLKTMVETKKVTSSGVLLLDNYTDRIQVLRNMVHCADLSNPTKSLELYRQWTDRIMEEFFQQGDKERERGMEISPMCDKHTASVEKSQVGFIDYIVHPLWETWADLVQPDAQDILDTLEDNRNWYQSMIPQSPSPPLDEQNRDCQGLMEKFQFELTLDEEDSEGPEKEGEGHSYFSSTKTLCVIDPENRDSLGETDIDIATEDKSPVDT
Experimental: Inhibition of recombinant human mononuclear lymphoctye (MNL) phosphodiesterase type IV B produced in insect cells with a baculovirus vector
The alleviating and/or curing effect of the instant compounds on allergic and atopic diseases was assessed by an in vitro assay system to detect an inhibiting effect on the recombinant human MNL phosphodiesterase type IV B.
Seventy-two hours after infection with recombinant baculovirus, the insect cells were harvested and pelleted at 500 g for 5 minutes. The cells were lysed in 10 ml lysis-buffer consisting of 20 mM Tris, 10 mM EGTA, 2 mM Na2EDTA, 1% Triton-X-100, 1 mM Na3VO4, 10 mM NaF, 2 μg/ml of leupeptine, pepstatine and aprotinine, 0.3 μg/ml benzamidine and 100 μg/ml TPCK pH 7.5. After 5 minutes on ice, solubilized cells were centrifuged at 4000 rpm for 15 minutes at 4° C. The resulting supernatant was filtered through a 0.45 μm filter (Millipore) and brought to TBS buffer (50 mM Tris, 150 mM NaCl pH 7.4).
After washing the column with equilibration buffer, PDE IV was eluted in 1.5 ml fractions containing 37.5 μl 1M Tris pH 8. The fractions were dialyzed overnight against 20 mM Tris, 2 mM Na2EDTA and 400 mM NaCl pH 7.5 and tested for PDE IV activity. Identification was done on SDS PAGE and Western Blot (anti-FLAG-M2). Active fractions were pooled, brought to 10% glycerol and stored at −70° C.
The incubation mixture (pH 8) (200 μl) contained 20 mM Tris, 10 mM magnesium sulphate, 0.8 μM ^3H-cAMP (310 mCi/mmole) and the phosphodiesterase type IV, the amount depending on the enzymatic activity.
When the effect of different compounds on phosphodiesterase activity was tested, the medium without cAMP was incubated with the compound(s) or its carrier (DMSO-1% final concentration) for 5 min. The enzymatic reaction was started by addition of ^3H-cAMP and stopped 10 min later after transferring the microtiter-plate in a waterbath at 100° C. for 5 min. After cooling to room temperature, alkaline phosphatase (0.25 μg/ml) was added and the mixture was incubated at 37° C. for 20 min. 100 μl of the mixture was subsequently applied to a GF-B filter-microtiter-plate (Millipore) filled with 300 μl DEAE-Sephadex-A25 suspension. The plate was washed 3 times with 75 μl 20 mM Tris pH 7.5 and the filtrates were collected for counting in the Packard Top Count scintillation counter.
The inhibiting effect of the present compounds on recombinant human MNL phosphodiesterase PDE IV B was measured at different concentrations of the instant compounds. The IC50 values (expressed in M) were calculated graphically from the thus obtained inhibition values.

[2] = test system: dextran-induced oedema formation in mouse ear; assay: Dextran-induced oedema formation in mouse ear; assay type: in vivo, Male Swiss mice; conditions: Mus musculus, 1 h; oral dose of 5 mg/kg in PEG-200, one hour before i.v. dextran T500/pontamine sky-blue; vs background blueing value; read-out: % inhibition of the extravasation of the dye
Experimental: Dextran-induced oedema formation in mouse ear Systemic injection of dextran T500 in normal, non-sensitized mice elicits increased vascular permeability, leading to extravasation and oedema of the extremities. When dextran is injected together with a blue dye, blueing of the ears is the most prominent feature of oedematous response. Male Swiss mice weighting 24-26 g were orally pretreated with the test compound dissolved in PEG-200 at different concentrations or solvent. One hour later, the mice were given an intravenous injection with an isotonic saline solution containing 12 mg/ml dextran T500 and 2.6 mg/ml pontamine sky-blue dye, in a volume of 0.1 ml per 10 g body weight. One hour and forty-five minutes later, the animals are sacrificed by ether and their ears removed. Extraction and quantification of the extravasated dye is done as described by Van Wauwe and Goossens (Drug Dev. Res. 1986, 8, 213-218). The extravasation of the dye is characterized by the blueing value which is defined as the concentration of the extracted dye in both ears. The background blueing value was determined once as the mean blueing value obtained by injecting a group of mice with a saline solution containing only dextran T500 and the blue dye. Table 6 lists the percentage inhibition of the extravasation of the dye when compared with the background extravasation of the dye when the test compound was administered at a dose of 5 mg/kg. The test compounds indicated by an asterisk (*) were tested at a dose of 2.5 mg/kg

Work on `COc1ccc(C(N)CN2CCN(Cc3ccccc3)C2=O)cc1OC` (racemic) (as salt: hydrochloric acid salt) [Compound 11, (±)-1-[2-amino-2-(3,4-dimethoxyphenyl)ethyl]-3-(phenylmethyl)-2-imidazolidinone] yielded a melting point of 221.7 °C.
`COc1ccc(C(C)(O)Cn2cc[nH]c2=O)cc1OC1CCCC1` (racemic) [Compound 12, (±)-1-[2-[3-(cyclopentyloxy)-4-methoxyphenyl]-2-hydroxypropyl]-1,3-dihydro-2H-imidazol-2-one] showed an IC50 [1] of 290 nM, an inhibition in vivo at 5 mg/kg [2] of 87.5% and a melting point of 136.2 °C.
`COc1ccc(C(CN2CCN(Cc3ccccc3)C2=O)NC(C)=O)cc1OC` (racemic) [Compound 14, (±)-N-[1-(3,4-dimethoxyphenyl)-2-[2-oxo-3-(phenylmethyl)-1-imidazolidinyl]ethyl]acetamide] showed an inhibition in vivo at 5 mg/kg [2] of 32.3% and a melting point of 156.4 °C.
`CCOC(Cn1cc[nH]c1=O)c1ccc(OC)c(OC)c1` (racemic) [Compound 15, (±)-1-[2-(3,4-dimethoxyphenyl)-2-ethoxyethyl]-1,3-dihydro-2H-imidazol-2-one] gave a melting point of 133.6 °C.
For `COc1ccc(C2(Cn3ccn(Cc4ccccc4)c3=O)CC2)cc1OC` [Compound 21, 1-[[1-(3,4-dimethoxyphenyl)cyclopropyl]methyl]-1,3-dihydro-3-(phenylmethyl)-2H-imidazol-2-one], the melting point was 110.5 °C.
